Like-named read-outs stand apart in the source and are kept apart here.
Experiments:
[1] = tested on: A/Hanoi/UT30408(clone 7)/2005 (H5N1); parameters: species or system mice (Balb/c); settings: mouse, in vivo
[2] = tested on: H5N1 influenza virus A/Hanoi/30408/2005 (clone 7), oseltamivir sensitive strain; assay: microbe, parasite or virus in culture; format: cell-based

Compound: 5-Acetamido-4-guanidino-9-O-octanoyl-2,3,4,5-tetradeoxy-7-O-methyl-D-glycero-D-galacto-non-2-enopyranosoic acid [Compound of Preparation Example 1]
- number of mice surviving, Day 10 [1]: 7

Compound: CO[C@@H]([C@@H]1OC(C(=O)O)=C[C@H](NC(=N)N)[C@H]1NC(C)=O)[C@H](O)CO [Compound of Preparation Example 2, 5-Acetamido-4-guanidino-2,3,4,5-tetradeoxy-7-O-methyl-D-glycero-D-galacto-non-2-enopyranosoic acid]
- IC50 ([2]; Influenza A virus, H5N1, MDCK, read-out: Viral Proliferation Inhibitory Activity (IC50, nM)): 0.43 nM

Compound: CC(=O)N[C@H]1[C@H]([C@H](O)[C@H](O)CO)OC(C(=O)O)=C[C@@H]1N=C(N)N [Zanamivir, reference compound]
- IC50 ([2]; read-out: Viral Proliferation Inhibitory Activity (IC50)): 3.3 nM

From patent US20140018418A1 (priority 2007, published 2014)
